{
  "source": "ChEMBL document CHEMBL1135344",
  "about": "“Synthesis and antiviral/antiproliferative activity of some N-sulphonylbenzimidazoles” (Bioorg Med Chem Lett, 2002)",
  "key": {"HEL [1]": {"system": "HEL", "assay": "Cytotoxic concentration reducing HEL cell growth by 50%.", "type": "functional", "settings": "Homo sapiens"}, "HEL [2]": {"system": "HEL", "assay": "Minimum cytotoxic concentration against HEL cell morphology.", "type": "functional", "settings": "Homo sapiens"}, "Human alphaherpesvirus 3 [3]": {"system": "Human alphaherpesvirus 3", "assay": "Antiviral activity was tested against TK- Varicella-Zoster virus 07/1 which reduces virus plaque formation by 50%", "type": "functional, organism-based"}, "Human alphaherpesvirus 3 [4]": {"system": "Human alphaherpesvirus 3", "assay": "Antiviral activity was tested against TK+ Varicella-Zoster virus OKA which reduces virus plaque formation by 50%", "type": "functional, organism-based"}, "Human alphaherpesvirus 3 [5]": {"system": "Human alphaherpesvirus 3", "assay": "Antiviral activity was tested against TK+ Varicella-Zoster virus YS which reduces virus plaque formation by 50%", "type": "functional, organism-based"}, "Human alphaherpesvirus 3 [6]": {"system": "Human alphaherpesvirus 3", "assay": "Antiviral activity was tested against TK- Varicella-Zoster virus YS/R which reduces virus plaque formation by 50%", "type": "functional, organism-based"}, "Human betaherpesvirus 5 [7]": {"system": "Human betaherpesvirus 5", "assay": "Antiviral activity was tested against human cytomegalovirus AD-169 which reduces virus plaque formation by 50%", "type": "functional, organism-based"}, "Human betaherpesvirus 5 [8]": {"system": "Human betaherpesvirus 5", "assay": "Antiviral activity was tested against human cytomegalovirus Davis which reduces virus plaque formation by 50%", "type": "functional, organism-based"}},
  "data": [
    {"compound": "Nc1nc2c(ncn2COCCO)c(=O)[nH]1", "note": "[ACYCLOVIR]", "values": [
      {"measurement": "CC50", "setting": "HEL [1]", "result": "> 200", "unit": "µg/mL"},
      {"measurement": "MCC", "setting": "HEL [2]", "result": "> 50", "unit": "µg/mL"},
      {"measurement": "IC50", "setting": "Human alphaherpesvirus 3 [3]", "result": 6.5, "unit": "µg/mL"},
      {"measurement": "IC50", "setting": "Human alphaherpesvirus 3 [4]", "result": 0.35, "unit": "µg/mL"},
      {"measurement": "IC50", "setting": "Human alphaherpesvirus 3 [5]", "result": 0.38, "unit": "µg/mL"},
      {"measurement": "IC50", "setting": "Human alphaherpesvirus 3 [6]", "result": 3.1, "unit": "µg/mL"}
    ]},
    {"compound": "Nc1ccn(C[C@@H](CO)OCP(=O)(O)O)c(=O)n1.O.O", "note": "[CIDOFOVIR]", "values": [
      {"measurement": "CC50", "setting": "HEL [1]", "result": "> 50", "unit": "µg/mL"},
      {"measurement": "MCC", "setting": "HEL [2]", "result": "> 50", "unit": "µg/mL"},
      {"measurement": "IC50", "setting": "Human betaherpesvirus 5 [7]", "result": 0.1, "unit": "µg/mL"},
      {"measurement": "IC50", "setting": "Human betaherpesvirus 5 [8]", "result": 0.3, "unit": "µg/mL"}
    ]},
    {"compound": "Nc1nc2c(ncn2COC(CO)CO)c(=O)[nH]1", "note": "[GANCICLOVIR]", "values": [
      {"measurement": "CC50", "setting": "HEL [1]", "result": "> 50", "unit": "µg/mL"},
      {"measurement": "MCC", "setting": "HEL [2]", "result": "> 50", "unit": "µg/mL"},
      {"measurement": "IC50", "setting": "Human betaherpesvirus 5 [7]", "result": 0.3, "unit": "µg/mL"},
      {"measurement": "IC50", "setting": "Human betaherpesvirus 5 [8]", "result": 0.4, "unit": "µg/mL"}
    ]},
    {"compound": "O=c1[nH]c(=O)n([C@H]2C[C@H](O)[C@@H](CO)O2)cc1/C=C/Br", "note": "[BRIVUDINE]", "values": [
      {"measurement": "CC50", "setting": "HEL [1]", "result": "> 200", "unit": "µg/mL"},
      {"measurement": "MCC", "setting": "HEL [2]", "result": "> 50", "unit": "µg/mL"},
      {"measurement": "IC50", "setting": "Human alphaherpesvirus 3 [3]", "result": 6.8, "unit": "µg/mL"},
      {"measurement": "IC50", "setting": "Human alphaherpesvirus 3 [4]", "result": 0.002, "unit": "µg/mL"},
      {"measurement": "IC50", "setting": "Human alphaherpesvirus 3 [5]", "result": 0.003, "unit": "µg/mL"},
      {"measurement": "IC50", "setting": "Human alphaherpesvirus 3 [6]", "result": 6.4, "unit": "µg/mL"}
    ]}
  ]
}
